{"source": "patent US20230085307A1", "about": "“PYRIDAZINONE COMPOUND AND HERBICIDE” (NISSAN CHEMICAL CORPORATION, priority 2019, published 2023)", "key": {"redroot pigweed": {"tested_on": "redroot pigweed", "assay": "Test Example 4: herbicidal effect by soil treatment (Table 19, symbol N)", "assay_type": "in vivo, redroot pigweed (Amaranthus retroflexus)", "conditions": "AAH 320 g/ha", "method_in_brief": "(§1)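 Soil-surface application: an emulsion agent diluted with water to the predetermined dose is sprayed uniformly over seeds lying under roughly 1.5 cm of sterilized diluvial soil. Boxes stay in a greenhouse at 25° C. to 30° C. Three weeks later, each species is graded on previously defined criteria.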"}, "blackgrass [1]": {"tested_on": "blackgrass", "assay": "Test Example 4: herbicidal effect by soil treatment (Table 19, symbol J)", "assay_type": "in vivo, blackgrass (Alopecurus myosuroides)", "conditions": "AAH 320 g/ha", "method_in_brief": "as §1"}, "false cleavers [2]": {"tested_on": "false cleavers", "assay": "Test Example 5: herbicidal effect by foliage application, plastic box (Table 20, symbol Q)", "assay_type": "in vivo, false cleavers (Galium spurium)", "conditions": "foliage application, 320 g/ha, 3 weeks after application", "method_in_brief": "(§2)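 Sow seeds spot-wise in sterilized diluvial soil; cover with ~1.5 cm soil. Grow 14 days in greenhouse, 25° C. to 30° C. Spray foliage with emulsion diluted to predetermined amount. Rate effect after 3 weeks.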"}, "false cleavers [3]": {"tested_on": "false cleavers", "assay": "Test Example 4: herbicidal effect by soil treatment (Table 19, symbol Q)", "assay_type": "in vivo, false cleavers (Galium spurium)", "conditions": "AAH 320 g/ha", "method_in_brief": "as §1"}, "chickweed": {"tested_on": "chickweed", "assay": "Test Example 4: herbicidal effect by soil treatment (Table 19, symbol P)", "assay_type": "in vivo, common chickweed (Stellaria media)", "conditions": "AAH 320 g/ha", "method_in_brief": "as §1"}, "southern crabgrass [4]": {"tested_on": "southern crabgrass", "assay": "Test Example 5: herbicidal effect by foliage application, plastic box (Table 20, symbol F)", "assay_type": "in vivo, southern crabgrass (Digitaria ciliaris)", "conditions": "foliage application, 320 g/ha, 3 weeks after application", "method_in_brief": "as §2"}, "barnyard grass [5]": {"tested_on": "barnyard grass", "assay": "Test Example 5: herbicidal effect by foliage application, plastic box (Table 20, symbol H)", "assay_type": "in vivo, barnyard grass (Echinochloa crus-galli)", "conditions": "foliage application, 320 g/ha, 3 weeks after application", "method_in_brief": "as §2"}, "Italian ryegrass [6]": {"tested_on": "Italian ryegrass", "assay": "Test Example 5: herbicidal effect by foliage application, plastic box (Table 20, symbol K)", "assay_type": "in vivo, Italian ryegrass (Lolium multiflorum)", "conditions": "foliage application, 320 g/ha, 3 weeks after application", "method_in_brief": "as §2"}, "barnyard grass [7]": {"tested_on": "barnyard grass", "assay": "Test Example 3: herbicidal effect by foliage application, Wagner pot (Table 18, symbol H)", "assay_type": "in vivo, barnyard grass (Echinochloa crus-galli)", "conditions": "320 g/ha", "method_in_brief": "(§3)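 Plants were sown in alluvial soil held under 0.1–0.5 cm standing water and grown 14 days in a greenhouse at 25–30 °C. An emulsifiable formulation, water-diluted to the set dose, was then sprayed onto the foliage, and effects were scored three weeks later using previously defined criteria.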"}, "southern crabgrass [8]": {"tested_on": "southern crabgrass", "assay": "Test Example 4: herbicidal effect by soil treatment (Table 19, symbol F)", "assay_type": "in vivo, southern crabgrass (Digitaria ciliaris)", "conditions": "AAH 320 g/ha", "method_in_brief": "as §1"}, "wild oat [9]": {"tested_on": "wild oat", "assay": "Test Example 4: herbicidal effect by soil treatment (Table 19, symbol I)", "assay_type": "in vivo, wild oat (Avena fatua)", "conditions": "AAH 320 g/ha", "method_in_brief": "as §1"}, "windgrass [10]": {"tested_on": "windgrass", "assay": "Test Example 5: herbicidal effect by foliage application, plastic box (Table 20, symbol L)", "assay_type": "in vivo, windgrass (Apera spica-venti)", "conditions": "foliage application, 320 g/ha, 3 weeks after application", "method_in_brief": "as §2"}, "barnyard grass [11]": {"tested_on": "barnyard grass", "assay": "Test Example 4: herbicidal effect by soil treatment (Table 19, symbol H)", "assay_type": "in vivo, barnyard grass (Echinochloa crus-galli)", "conditions": "AAH 320 g/ha", "method_in_brief": "as §1"}, "persian speedwell [12]": {"tested_on": "persian speedwell", "assay": "Test Example 5: herbicidal effect by foliage application, plastic box (Table 20, symbol R)", "assay_type": "in vivo, Persian speedwell (Veronica persica)", "conditions": "foliage application, 320 g/ha, 3 weeks after application", "method_in_brief": "as §2"}, "lambsquarters [13]": {"tested_on": "lambsquarters", "assay": "Test Example 4: herbicidal effect by soil treatment (Table 19, symbol O)", "assay_type": "in vivo, lambsquarters (Chenopodium album)", "conditions": "AAH 320 g/ha", "method_in_brief": "as §1"}, "blackgrass [14]": {"tested_on": "blackgrass", "assay": "Test Example 5: herbicidal effect by foliage application, plastic box (Table 20, symbol J)", "assay_type": "in vivo, blackgrass (Alopecurus myosuroides)", "conditions": "foliage application, 320 g/ha, 3 weeks after application", "method_in_brief": "as §2"}, "persian speedwell [15]": {"tested_on": "persian speedwell", "assay": "Test Example 4: herbicidal effect by soil treatment (Table 19, symbol R)", "assay_type": "in vivo, Persian speedwell (Veronica persica)", "conditions": "AAH 320 g/ha", "method_in_brief": "as §1"}, "Italian ryegrass [16]": {"tested_on": "Italian ryegrass", "assay": "Test Example 4: herbicidal effect by soil treatment (Table 19, symbol K)", "assay_type": "in vivo, Italian ryegrass (Lolium multiflorum)", "conditions": "AAH 320 g/ha", "method_in_brief": "as §1"}, "velvetleaf [17]": {"tested_on": "velvetleaf", "assay": "Test Example 4: herbicidal effect by soil treatment (Table 19, symbol M)", "assay_type": "in vivo, velvetleaf (Abutilon theophrasti)", "conditions": "AAH 320 g/ha", "method_in_brief": "as §1"}, "rice flat sedge": {"tested_on": "rice flat sedge", "assay": "Test Example 3: herbicidal effect by foliage application, Wagner pot (Table 18, symbol E)", "assay_type": "in vivo, rice flat sedge (Cyperus iria)", "conditions": "320 g/ha", "method_in_brief": "as §3"}, "Chinese sprangletop": {"tested_on": "Chinese sprangletop", "assay": "Test Example 3: herbicidal effect by foliage application, Wagner pot (Table 18, symbol D)", "assay_type": "in vivo, chinese sprangletop (Leptochloa chinensis)", "conditions": "320 g/ha", "method_in_brief": "as §3"}, "lambsquarters [18]": {"tested_on": "lambsquarters", "assay": "Test Example 5: herbicidal effect by foliage application, plastic box (Table 20, symbol O)", "assay_type": "in vivo, lambsquarters (Chenopodium album)", "conditions": "foliage application, 320 g/ha, 3 weeks after application", "method_in_brief": "as §2"}, "green foxtail": {"tested_on": "green foxtail", "assay": "Test Example 5: herbicidal effect by foliage application, plastic box (Table 20, symbol G)", "assay_type": "in vivo, green foxtail (Setaria viridis)", "conditions": "foliage application, 320 g/ha, 3 weeks after application", "method_in_brief": "as §2"}, "wild oat [19]": {"tested_on": "wild oat", "assay": "Test Example 5: herbicidal effect by foliage application, plastic box (Table 20, symbol I)", "assay_type": "in vivo, wild oat (Avena fatua)", "conditions": "foliage application, 320 g/ha, 3 weeks after application", "method_in_brief": "as §2"}, "velvetleaf [20]": {"tested_on": "velvetleaf", "assay": "Test Example 5: herbicidal effect by foliage application, plastic box (Table 20, symbol M)", "assay_type": "in vivo, velvetleaf (Abutilon theophrasti)", "conditions": "foliage application, 320 g/ha, 3 weeks after application", "method_in_brief": "as §2"}, "windgrass [21]": {"tested_on": "windgrass", "assay": "Test Example 4: herbicidal effect by soil treatment (Table 19, symbol L)", "assay_type": "in vivo, windgrass (Apera spica-venti)", "conditions": "AAH 320 g/ha", "method_in_brief": "as §1"}}, "data": [{"smiles": "CCCC(=O)Oc1c(OC)nn(C)c(=O)c1-c1c(-c2ccc3c(c2)OCCO3)sc2ccccc12", "note": "[1-199]", "values": [{"measurement": "N: redroot pigweed, herbicidal effect rating", "setting": "redroot pigweed", "result": "0 (Herbicidal rate of 5% or less (almost no effect))"}, {"measurement": "J: blackgrass, herbicidal effect rating", "setting": "blackgrass [1]", "result": "0 (Herbicidal rate of 5% or less (almost no effect))"}, {"measurement": "effect on false cleavers (Q)", "setting": "false cleavers [2]", "result": "0 (Herbicidal rate of 5% or less (almost no effect))"}, {"measurement": "Q: false cleavers, herbicidal effect rating", "setting": "false cleavers [3]", "result": "0 (Herbicidal rate of 5% or less (almost no effect))"}, {"measurement": "P: chickweed, herbicidal effect rating", "setting": "chickweed", "result": "4 (Herbicidal rate of 70% or more and less than 90%)"}, {"measurement": "effect on southern crabgrass (F)", "setting": "southern crabgrass [4]", "result": "0 (Herbicidal rate of 5% or less (almost no effect))"}, {"measurement": "effect on barnyard grass (H)", "setting": "barnyard grass [5]", "result": "0 (Herbicidal rate of 5% or less (almost no effect))"}, {"measurement": "effect on Italian ryegrass (K)", "setting": "Italian ryegrass [6]", "result": "0 (Herbicidal rate of 5% or less (almost no effect))"}, {"measurement": "herbicidal effect on H (barnyard grass), rating 0-5", "setting": "barnyard grass [7]", "result": "0 (Herbicidal rate of 5% or less (almost no effect))"}, {"measurement": "F: southern crabgrass, herbicidal effect rating", "setting": "southern crabgrass [8]", "result": "1 (Herbicidal rate of 5% or more and less than 20%)"}, {"measurement": "I: wild oat, herbicidal effect rating", "setting": "wild oat [9]", "result": "0 (Herbicidal rate of 5% or less (almost no effect))"}, {"measurement": "effect on windgrass (L)", "setting": "windgrass [10]", "result": "0 (Herbicidal rate of 5% or less (almost no effect))"}, {"measurement": "H: barnyard grass, herbicidal effect rating", "setting": "barnyard grass [11]", "result": "2 (Herbicidal rate of 20% or more and less than 40%)"}, {"measurement": "effect on persian speedwell (R)", "setting": "persian speedwell [12]", "result": "4 (Herbicidal rate of 70% or more and less than 90%)"}, {"measurement": "O: lambsquarters, herbicidal effect rating", "setting": "lambsquarters [13]", "result": "3 (Herbicidal rate of 40% or more and less than 70%)"}, {"measurement": "effect on blackgrass (J)", "setting": "blackgrass [14]", "result": "0 (Herbicidal rate of 5% or less (almost no effect))"}, {"measurement": "R: persian speedwell, herbicidal effect rating", "setting": "persian speedwell [15]", "result": "5 (Herbicidal rate of 90% or more (almost completely withered))"}, {"measurement": "K: Italian ryegrass, herbicidal effect rating", "setting": "Italian ryegrass [16]", "result": "0 (Herbicidal rate of 5% or less (almost no effect))"}, {"measurement": "M: velvetleaf, herbicidal effect rating", "setting": "velvetleaf [17]", "result": "0 (Herbicidal rate of 5% or less (almost no effect))"}, {"measurement": "herbicidal effect on E (rice flat sedge), rating 0-5", "setting": "rice flat sedge", "result": "5 (Herbicidal rate of 90% or more (almost completely withered))"}, {"measurement": "herbicidal effect on D (Chinese sprangletop), rating 0-5", "setting": "Chinese sprangletop", "result": "0 (Herbicidal rate of 5% or less (almost no effect))"}, {"measurement": "effect on lambsquarters (O)", "setting": "lambsquarters [18]", "result": "0 (Herbicidal rate of 5% or less (almost no effect))"}, {"measurement": "effect on green foxtail (G)", "setting": "green foxtail", "result": "0 (Herbicidal rate of 5% or less (almost no effect))"}, {"measurement": "effect on wild oat (I)", "setting": "wild oat [19]", "result": "0 (Herbicidal rate of 5% or less (almost no effect))"}, {"measurement": "effect on velvetleaf (M)", "setting": "velvetleaf [20]", "result": "0 (Herbicidal rate of 5% or less (almost no effect))"}, {"measurement": "L: windgrass, herbicidal effect rating", "setting": "windgrass [21]", "result": "0 (Herbicidal rate of 5% or less (almost no effect))"}]}]}
